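Exposure lasted 48 hours, with cells grown in 96-well plates and compounds tested at five concentrations. TGI marks complete inhibition of growth.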
Assays:
Test in all cases: NCI tumour cell line growth inhibition, 48 h
[1] = test system: A498 renal
[2] = test system: HCT-15 colon
[3] = test system: HT29 colon
[4] = test system: IGROV1 ovarian
[5] = test system: LOX IMVI melanoma
[6] = test system: M14 melanoma
[7] = test system: MALME-3M melanoma
[8] = test system: MDA-N
[9] = test system: NCI/ADR-RES ovarian
[10] = test system: OVCAR-8 ovarian
[11] = test system: PC-3 prostate
[12] = test system: RXF 393 renal
[13] = test system: SF-268 CNS
[14] = test system: SK-MEL-2 melanoma
[15] = test system: SK-OV-3 ovarian
[16] = test system: SNB-75 CNS
[17] = test system: U251 CNS
[18] = test system: UO-31 renal
[19] = test system: DU-145 prostate
[20] = test system: HL-60(TB) leukemia

Measured: TGI

Cc1ccc(Nc2[nH]c(=O)[nH]c(=O)c2C)cc1Cl
not listed: [19] | [20]
> 100 µM: all other assays above

CC(=O)Nc1ccc(-c2nc3ccccc3s2)cc1C
21.6 µM: [1]
55.6 µM: [19]
not listed: [7] | [8]
> 100 µM: all other assays above

COC(=O)N/N=C(\C(=O)Nc1cccc([N+](=O)[O-])c1)c1nc2ccc([N+](=O)[O-])cc2[nH]c1=O
13.3 µM: [13]
not listed: [1] | [2] | [8] | [9] | [11] | [14] | [17] | [19]
> 100 µM: all other assays above

CSc1ccc(OCC2OC2O)cc1 (stereo not drawn)
> 90.9 µM: [3]
> 31.6 µM: [5]
> 83.5 µM: [20]
> 54.2 µM: [2]
not listed: [8] | [9] | [11] | [13] | [19]
> 100 µM: all other assays above

C/C(=N\NS(=O)(=O)c1ccc(C)cc1)c1cc2ccccc2n1C
not listed: [8] | [9] | [11] | [12] | [15] | [19]
> 100 µM: all other assays above

COc1ccc(N2C(=O)c3c(c4[nH]c5ccc(OC)cc5c4c4ccc(C(C)(C)C)cc34)C2=O)cc1
not listed: [1] | [5] | [8] | [9] | [11] | [12] | [19]
> 100 µM: all other assays above

O=C(O)CCNC(=O)c1cc(N(CCBr)CCBr)c([N+](=O)[O-])cc1[N+](=O)[O-]
not listed: [12] | [19]
> 100 µM: all other assays above

Cc1ccc(NCC(=O)N2CC(=O)Nc3ccccc32)cc1
not listed: [1] | [4] | [8] | [9] | [11] | [19]
> 100 µM: all other assays above

Cc1c(/C=N/NC(=S)Nc2ccccc2)c(=O)n(-c2ccccc2)n1C
not listed: [7] | [8]
> 100 µM: all other assays above

CC(Oc1ccc(OCC2CCCCC2)cc1)C(=O)NCCO (stereo not drawn)
not listed: [8] | [9] | [11] | [19]
> 100 µM: all other assays above

COC(=O)c1c2c(cc3c1CC1(C3)Cc3cc4c(c(C(C)=O)c3C1)CCC4)C=CC2 (stereo not drawn)
31.2 µM: [16]
not listed: [5] | [7] | [8] | [12] | [15]
> 31.6 µM: all other assays above

COc1cccc(CCNc2c(C#N)c3nc4ccccc4n3c3ccccc23)c1
> 58 µM: [16]
> 26.2 µM: [1]
> 41.1 µM: [19]
not listed: [8] | [9]
> 100 µM: all other assays above

COC(=O)C1=CC2CC1C(S(=O)(=O)c1ccccc1)C2S(=O)(=O)c1ccccc1 (stereo not drawn)
27.1 µM: [5]
7.29 µM: [20]
23.5 µM: [7]
38.5 µM: [10]
35.8 µM: [17]
42.9 µM: [1]
25.5 µM: [6]
98.9 µM: [4]
26.8 µM: [2]
> 100 µM: [15]
27.7 µM: [18]
53.5 µM: [13]
28.9 µM: [3]

CSc1cc(Br)ccc1-n1c(C(=O)c2ccccc2)c(SC)n(-c2ccccc2)c1=O
not listed: [1] | [7] | [12] | [14] | [19] | [20]
> 100 µM: all other assays above

CN(C)c1ccc(-c2c(C#N)c(O)n(NS(=O)(=O)c3ccccc3)c(=O)c2C#N)cc1
37 µM: [15]
not listed: [18] | [19]
> 100 µM: all other assays above

CC1(c2cccc(N)c2)C2C(=O)NC(=O)C1C(=O)NC2=O (stereo not drawn)
95 µM: [7]
73.2 µM: [16]
91.5 µM: [15]
99.6 µM: [1]
> 100 µM: [2] | [3] | [4] | [6] | [10] | [13]
71.2 µM: [12]
43.2 µM: [20]
67.8 µM: [18]
57.7 µM: [14]
81.1 µM: [5]

Cc1ccc(N=C2S/C(=C3/CCC=C3N3CCOCC3)N(c3ccc(Cl)cc3)C2=Nc2ccc(C)cc2)cc1
not listed: [5] | [9] | [13] | [15] | [19]
> 100 µM: all other assays above

CN(C)CCC(CCN(C)C)=NOC(=O)c1ccccc1
not listed: [5] | [8] | [9] | [11] | [19]
> 100 µM: all other assays above

CC1=NN2C(c3ccc(C)cc3)=CSC2=NC(C)(C)C1
not listed: [8] | [9] | [11] | [19]
> 100 µM: all other assays above

O=C1C(Cl)C2(CC(/C=C/c3ccccc3O)=NN2c2cccc(S(=O)(=O)O)c2)N1c1nc2ccccc2s1 (stereo not drawn)
46.9 µM: [17]
24.7 µM: [5]
40.8 µM: [14]
39 µM: [3]
14.5 µM: [20]
44.6 µM: [2]
50.5 µM: [1]
63.9 µM: [10]
31.2 µM: [4]
47 µM: [8]
26.2 µM: [18]
43.4 µM: [13]
> 100 µM: [9] | [11] | [12] | [16]
27.1 µM: [7]
37.8 µM: [6]

CC(=O)OC1CC2(C)OC(Cc3ccccc32)O1 (stereo not drawn)
not listed: [1] | [2] | [8] | [9] | [11] | [19]
> 100 µM: all other assays above

c1cnc2c(c1)-n1cccc1C1(CCSC1)NN2 (stereo not drawn)
not listed: [1] | [4] | [8] | [9] | [11] | [12] | [15] | [19]
> 100 µM: all other assays above

Cc1ccc2c(c1)C1C(CO2)C(c2ccccc2)=NN1c1ccccc1 (stereo not drawn)
not listed: [2] | [6] | [8] | [9] | [11] | [19]
> 100 µM: all other assays above

C[C@H](NC(=O)n1c2ccccc2c2ccccc21)C(=O)O
not listed: [1] | [6] | [8] | [9] | [11] | [16] | [18] | [19]
> 100 µM: all other assays above

O=C(NNC(=S)Nc1ccc(Br)cc1)c1cc(-c2ccccc2)nc2ccccc12
28.6 µM: [1]
> 100 µM: [4] | [13] | [16]
43.6 µM: [7]
82.4 µM: [3]
51.8 µM: [9]
57.7 µM: [10]
40.4 µM: [12]
46.3 µM: [11]
41.7 µM: [14]
36.4 µM: [18]
34.8 µM: [6]
40.8 µM: [19]
66.9 µM: [2]
32.5 µM: [17]
47.5 µM: [15]

CC(C)(C)CNC(=O)NCn1cc(-c2ccccc2)nn1
not listed: [1] | [8] | [12] | [15] | [16] | [18]
> 100 µM: all other assays above

Cc1cc2oc(-c3ccccc3)c(C)c(=O)c2c2c1OC(C)(C)S2
38.4 µM: [20]
not listed: [1] | [8] | [9] | [11] | [19]
> 100 µM: all other assays above

N#Cc1cc([N+](=O)[O-])ccc1NC(=O)C(F)(F)F
> 49.7 µM: [5]
> 58.5 µM: [2]
> 67.6 µM: [3]
> 95.9 µM: [16]
not listed: [8] | [9] | [11] | [19]
> 100 µM: all other assays above

Cc1cc(C)n2c(-c3ccccc3)c(C)cc2n1
59.8 µM: [16]
50.4 µM: [20]
not listed: [8] | [9] | [11] | [19]
> 100 µM: all other assays above

— PubChem BioAssay (NCI)
